Assay results taken from patent publication US20220273628A1, “EFFECTS OF LYSERGIC ACID DIETHYLAMIDE (LSD) AND OF LSD ANALOGS TO ASSIST PSY[…] G[…] DISORDER OR OTHER ANXIETY NOT RELATED TO LIFE-T[…]” (Universitätsspital Basel, priority 2021, published 2022).

Legend:
[1] = test system: patients with anxiety disorder without somatic illness; assay: Same phase II study: adverse events; format: in vivo, human
Text: Subjects were asked to report any adverse events (AEs) during the sessions or between study sessions at the beginning of the next session/visit and at the end of study (EOS) visit. The investigator rated hallucinogen-specific AEs that occurred during the session using a checklist adapted from (Gasser et al., 2014; Griffiths et al., 2006; Schmid et al., 2015). Peak effects were rated at the end of the session based on the patients description and investigators' observation by the investigator as “not reported”, “mild”, “moderate”, or “severe” for: headache, dizziness, dry mouth, nausea, anxiety, paranoid thinking, emotional distress, emotional lability, blurred vision, chills/feeling cold, impaired balance. Heart rate and blood pressure were measured at 2-hourly intervals (Grob et al., 2011).
AEs were described and recorded on the subject's CRF, regardless of the severity or relationship to the IMP. AEs were rated for severity and the potential relationship to the study interventions was evaluated by the investigator according standard criteria. Subjects with AEs were treated appropriately. Abnormal laboratory values not explained by the patients' disease had to be repeated until normal or until the abnormality caould be explained and the subject's safety was not at risk.

5-HT1 receptors = conditions: cited from earlier work
adrenergic α1 receptors = conditions: cited from earlier work
healthy volunteers = conditions: cited from earlier work
amygdala reactivity = conditions: fMRI; cited from earlier work
healthy participants = conditions: in vivo; cited from earlier work
[2] = 200 μg oral, cited from earlier work
healthy subjects = conditions: cited from earlier work
[3] = test system: patients with life-threatening illness and related anxiety; conditions: cited from earlier work
[4] = drinking solution (water/alcohol) in dark glass vials; cited from earlier work
[5] = follow-up visits, not including treatment sessions
[6] = within-subjects, after two LSD sessions

CCN(CC)C(=O)[C@@H]1C=C2c3cccc4[nH]cc(c34)C[C@H]2N(C)C1 [LSD, lysergic acid diethylamide]
tolerability after dose lowered ([1]; 100 μg instead of 200 μg, patient with paranoia SAE): tolerated well | fatigue, total of reported AEs ([1]; all follow-up visits of the period, not including treatment sessions): 9 | anxiety at onset of the LSD effect ([1]; during the treatment session): two | headache ([1]; during the treatment session): one | nausea ([1]; during the treatment session): two | strong anxiety/paranoia ([1]; during the treatment session): one | SAE: paranoia during the LSD session (expected reaction to LSD) ([1]; first LSD session, 200 μg): one | common cold, total of reported AEs [1, 5]: 7 | depression, total of reported AEs [1, 5]: 3 | difficulty concentrating, total of reported AEs [1, 5]: 5 | headache, total of reported AEs [1, 5]: 6 | nausea, total of reported AEs [1, 5]: 3 | vertigo, total of reported AEs [1, 5]: 5 | activity at 5-HT1 receptors (5-HT1 receptors): stimulates | activity at adrenergic α1 receptors (adrenergic α1 receptors): stimulates | optimism and trait openness compared with placebo (healthy volunteers; 75 μg intravenously, at two weeks): increased | blood pressure and heart rate (healthy volunteers; 40-80 μg intravenously, 10 healthy volunteers): slightly elevated | amygdala reactivity to fearful stimuli (amygdala reactivity): decreased | emotional empathy and prosociality (healthy participants): enhancing | recognition of fearful and sad faces (healthy participants): decreasing | time to maximal concentrations of LSD ([2]; 16 healthy subjects): 1.5 h | half-life ([2]; first-order kinetics up to 12 hours): 3.6 h | duration of alterations in waking consciousness (healthy subjects; 200 μg oral, 16 healthy subjects): 12 h | blood pressure, heart rate, body temperature, pupil size, plasma cortisol, prolactin, oxytocin, and epinephrine (healthy subjects; 200 μg oral): significantly increased | time until adverse effects completely subsided (healthy subjects; 200 μg oral): ≤ 72 h | difficulty concentrating, number of subjects of 16 participants (healthy subjects; 200 μg, acute AE): 10 | dizziness, number of subjects of 16 participants (healthy subjects; 200 μg, acute AE): 7 | headache, number of subjects of 16 participants (healthy subjects; 200 μg, acute AE): 9 | nausea, number of subjects of 16 participants (healthy subjects; 200 μg, acute AE): 4 | transient moderate anxiety, number of subjects of 16 participants (healthy subjects; 200 μg, acute AE): 4 | duration of LSD effects after administration (healthy subjects; 200 μg): up to 12 hours | time of peak LSD effects (healthy subjects; 200 μg): 2 h | STAI anxiety compared with baseline ([3]; 2 months after the two LSD sessions, 200 μg per os): significant decrease | mild affect lability, share of LSD sessions ([3]; in vivo): 14% | mild gait disturbance, share of LSD sessions ([3]; in vivo): 32% | mild-to-moderate emotional distress, share of LSD sessions ([3]; in vivo): 36% | moderate anxiety, share of LSD sessions ([3]; in vivo): 23% | moderately feeling cold, share of LSD sessions ([3]; in vivo): 45% | number of migraine attacks ([3]; two migraine patients): markedly reduced | STAI state anxiety score after LSD (mean±SD) [3, 6]: 41.5±9.7 | STAI trait anxiety score after LSD (mean±SD) [3, 6]: 45.3±10.3 | STAI state anxiety score before LSD (mean±SD) ([3]; within-subjects, baseline): 53.1±13.5 | STAI trait anxiety score before LSD (mean±SD) ([3]; within-subjects, baseline): 53.3±11.3 | decrease in STAI trait anxiety score (mean±SD) ([3]; within-subjects): 8.0±7.7 points | reduction in STAI state anxiety score (mean±SD) ([3]; within-subjects): 11.6±9.5 points | content-uniformity and stability of the formulation [4]: stability of the formulation throughout the entire study period was documented
